Data as given in the supplement of paper PMC10307832.

How the values were obtained:
Assay in all cases: relative viability (nuclei count vs DMSO), 5 days (fraction); higher = more cells survive
[1] = compound: COc1ncc(-c2ccc3nccc(-c4ccnnc4)c3c2)cc1NS(=O)(=O)c1ccc(F)cc1F [Omipalisib] + CS(=O)(=O)N1CCN(Cc2cc3nc(-c4cccc5[nH]ncc45)nc(N4CCOCC4)c3s2)CC1 [Pictilisib] (partner 1 µM)
Summary of the method: (§1)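 Relative viability is defined as nuclei in treated wells over nuclei in vehicle wells. Duplicate plates were run and medians reported. Lung cancer cell lines in 1536-well plates were dosed by pin tool one day after seeding, with one drug or with a fixed anchor-drug dose plus five library-drug doses (not always all listed) in √10 steps, and nuclei were counted after 5 days.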

[2] = compound: COc1ncc(-c2ccc3nccc(-c4ccnnc4)c3c2)cc1NS(=O)(=O)c1ccc(F)cc1F [Omipalisib] + O=C(CCCCCCC(=O)Nc1ccccc1)NO [Vorinostat] (partner 1 µM)
Summary of the method: as §1

[3] = compound: COc1ncc(-c2ccc3nccc(-c4ccnnc4)c3c2)cc1NS(=O)(=O)c1ccc(F)cc1F [Omipalisib] + CC1(C)CCC(c2ccc(Cl)cc2)=C(CN2CCN(c3ccc(C(=O)NS(=O)(=O)c4ccc(N[C@H](CCN5CCOCC5)CSc5ccccc5)c(S(=O)(=O)C(F)(F)F)c4)cc3)CC2)C1 [Navitoclax] (partner 0.5 µM)
Summary of the method: as §1

[4] = compound: COc1ncc(-c2ccc3nccc(-c4ccnnc4)c3c2)cc1NS(=O)(=O)c1ccc(F)cc1F [Omipalisib] + C[C@]1(O)C[C@@H](c2nc(-c3ccc4ccc(-c5ccccc5)nc4c3)c3c(N)nccn32)C1 [Linsitinib] (partner 1 µM)
Summary of the method: as §1

[5] = compound: COc1ncc(-c2ccc3nccc(-c4ccnnc4)c3c2)cc1NS(=O)(=O)c1ccc(F)cc1F [Omipalisib] + Cc1nc(NC(=O)N2CCC[C@H]2C(N)=O)sc1-c1ccnc(C(C)(C)C(F)(F)F)c1 [Alpelisib] (partner 2 µM)
Summary of the method: as §1

[6] = compound: COc1ncc(-c2ccc3nccc(-c4ccnnc4)c3c2)cc1NS(=O)(=O)c1ccc(F)cc1F [Omipalisib]
Summary of the method: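 Lung cancer cell lines in 1536-well plates were exposed by pinning to five library-drug doses (not always all listed) √10 apart, following an overnight hold at 37 °C. MetaXpress counted Hoechst-stained nuclei from 4× images taken after 5 days without medium change. Viability is the median ratio of treated-well to vehicle-well nuclei across plates. Plates required control CV below 25% and at least one doubling.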

| Cell Line | relative viability ([1]; first compound 0.0003 µM) | relative viability ([1]; first compound 0.003 µM) | relative viability ([1]; first compound 0.03 µM) | relative viability ([2]; first compound 0.0003 µM) | relative viability ([2]; first compound 0.003 µM) | relative viability ([2]; first compound 0.03 µM) | relative viability ([3]; first compound 0.0003 µM) | relative viability ([3]; first compound 0.003 µM) | relative viability ([3]; first compound 0.03 µM) | relative viability ([4]; first compound 0.0003 µM) | relative viability ([4]; first compound 0.003 µM) | relative viability ([4]; first compound 0.03 µM) | relative viability ([5]; first compound 0.0003 µM) | relative viability ([5]; first compound 0.003 µM) | relative viability ([5]; first compound 0.03 µM) | relative viability ([6]; 0.0003 µM) | relative viability ([6]; 0.003 µM) | relative viability ([6]; 0.03 µM) |
| --- | --- | --- | --- | --- | --- | --- | --- | --- | --- | --- | --- | --- | --- | --- | --- | --- | --- | --- |
| LK-2 | 0.446 | 0.306 | 0.445 | 0.276 | 0.18 | 0.154 | 0.595 | 0.285 | 0.343 | 0.439 | 0.412 | 0.331 | 0.962 | 0.608 | 0.521 | 0.767 | 0.435 | 0.345 |
| LOU-NH91 | 0.511 | 0.487 | 0.441 | 1.02 | 0.679 | 0.582 | 0.635 | 0.585 | 0.346 | 0.876 | 0.717 | 0.512 | 0.681 | 0.677 | 0.53 | 0.999 | 0.784 | 0.65 |
| NCI-H358 | 0.285 | 0.272 | 0.278 | 0.573 | 0.546 | 0.272 |  |  |  | 0.639 | 0.457 | 0.289 | 0.963 | 0.594 | 0.524 | 0.893 | 0.561 | 0.388 |
| NCI-H650 | 0.867 | 0.762 | 0.631 | 0.325 | 0.337 | 0.186 |  |  |  | 0.76 | 0.689 | 0.47 | 1.03 | 0.741 | 0.487 | 0.876 | 0.745 | 0.51 |
| NCI-H661 | 0.567 | 0.37 | 0.365 | 0.78 | 0.782 | 0.785 |  |  |  | 0.389 | 0.439 | 0.234 | 0.804 | 0.612 | 0.478 | 1 | 0.923 | 0.82 |
| NCI-H1650 | 0.401 | 0.556 | 0.564 | 0.501 | 0.287 | 0.379 | 1.18 | 1.05 | 0.409 |  |  |  |  |  |  | 0.861 | 0.946 | 0.613 |
| NCI-H1792 | 0.281 | 0.278 | 0.129 |  |  |  | 0.583 | 0.515 | 0.235 | 0.417 | 0.441 | 0.164 | 0.664 | 0.6 | 0.236 | 0.91 | 0.495 | 0.213 |
| NCI-H2170 | 0.3 | 0.137 | 0.278 | 0.716 | 0.51 | 0.418 | 0.414 | 0.28 | 0.222 |  |  |  | 0.704 | 0.643 | 0.484 | 0.813 | 0.608 | 0.587 |
| NCI-H2342 |  |  |  | 0.678 | 0.536 | 0.499 |  |  |  |  |  |  |  |  |  | 0.741 | 0.63 | 0.534 |
| SW 900 |  |  |  | 0.523 | 0.484 | 0.316 |  |  |  |  |  |  |  |  |  | 0.886 | 0.768 | 0.591 |
